Each structure is given as a SMILES string.

The term IC50 denotes the point on the concentration scale where inhibition reaches its midpoint. A lower IC50 goes with greater potency. By Kd is commonly meant a measure of binding affinity in units of concentration.

The subject of assay [1] is BT474. As to the kind of experiment: Antitumor bioactivity evaluation, breast cancer cells (ATPlite). The assay is classed as cell-based. As to conditions: Homo sapiens, BT-474; for inhibition at 5 µM: test sample 5 μM, 72 hours, read-out: Inhibitory Rate % BT474. The gist of the method: (§1)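 Cells seeded at 5000/well, allowed to adhere 24 h at 37° C, then treated with test compound at final 5 μM, alone or combined with lapatinib at final 1 μM, for 72 h at 37° C. ATPlite luminescence read; survival rate = treated RLU/control RLU × 100%.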
(In general: In ATP-based viability assays light output follows the ATP content of the culture.)

The subject of assay [2] is MDA-MB-361. The assay is described as above. The assay is classed as cell-based. As to conditions: Homo sapiens, test sample 5 μM, 72 hours, read-out: Inhibitory Rate % MDA-MB-361. The gist of the method: as §1
Assay [3] relates to MDA-MB-453. Described as above. Type of assay: cell-based. As to conditions: Homo sapiens, test sample 5 μM, 72 hours, read-out: Inhibitory Rate % MDA-MB-453. The gist of the method: as §1
Assay [4] relates to SK-BR3. Described as above. The assay is classed as cell-based. As to conditions: Homo sapiens, SK-BR-3; test sample 5 μM, 72 hours; read-out: Inhibitory Rate % SK-BR3. Summed up: as §1
The subject of assay [5] is SK/Lap^R1.0. Described as above. The assay is classed as cell-based. As to conditions: Homo sapiens; test sample 5 μM, 72 hours; read-out: Inhibitory Rate % SKLap^R1.0. Summed up:
as §1

Assay [6] relates to BGC823. As to the kind of experiment: Extended test against tumor cell lines (ATPlite). The assay is classed as cell-based. As to conditions: BGC823 (gastric cancer), 72 hours. Summed up: (§2)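 Cells seeded at 5000/well, adhered 24 h at 37 °C, then exposed to compound at 4, 1, 0.25, 0.063, 0.016 μM final (triplicate) for 72 h at 37 °C. ATPlite luminescence read-out; survival (%) = treated RLU/control RLU × 100.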

The test system of assay [7] is N87. Put plainly: Extended test against tumor cell lines (ATPlite). Type of assay: cell-based. Conditions: N87 (gastric cancer), 72 hours. Summed up:
as §2

Assay [8] concerns the target T1, Hsp70 (Homo sapiens, UniProt P0DMV8).
T1 construct: purchased Enzo Life Sciences ADI-ESP-550-D
Put plainly: Measurement of affinity between compounds and Hsp70 (SPR, BIACORE T100). The assay is classed as binding. The method, then: Instrument for measuring the affinity between Example compounds and Hsp70 is BIACORE T100 Biomolecular Interaction Analysis (GE, USA), and the positive control drug is VER-155008 that is well-recognized as Hsp70 inhibitor now, and, on the basis of the measured results, according to binding characteristics between the compounds and protein, the binding constant (equilibrium dissociation constant KD) between drugs and protein is calculated by selecting steady state model with the formula: Conc*Rmax/[conc+KD]+offset.
1. Instrument: BIACORE T100 Biomolecular Interaction Analysis (GE, USA)
2. Reagents: PBS Buffer (×10), P20, CM5 chip (GE, USA), Hsp70 (human, ADI-ESP-550-D), manufactured by Enzo Life Sciences.
30 mM mother liquor of the compound was formulated with DMSO, which was diluted to 2 mM application solution with DMSO before use. 5 μl of the application solution was taken and diluted with 95 μl 1.05×PBS to 100 μM, and then diluted in turn with PBS containing 5% DMSO to […]. PBS containing 5% DMSO was used as solvent control.
Hsp70 protein was diluted with 10 mmol/L sodium acetate buffer solution (pH 5.0) to 30 μg/ml, and coupled directly on a hydrophilic carboxylmethyl dextran matrix sensor chip M5 through normalized primary amine coupling reaction, RU=11209, and then the chip was balanced for 1-2 h with PBS Buffer at […].
At a flow rate of […], with PBS containing 5% DMSO as mobile phase, at 25° C., the compound was introduced in the sequence of 0.003, 0.01, 0.03, 0.1, 0.3, 1, 3 and 10 μM, with binding time of 90 seconds, and dissociation time of 120 seconds.
According to binding characteristics between the compounds and protein, the binding constant (equilibrium dissociation constant KD) between drugs and protein was calculated by selecting steady state model with the formula: Conc*Rmax/[conc+KD]+offset.
Background: Surface plasmon resonance follows binding to a sensor surface in real time, without labels.

T1 sequence (P0DMV8 whole entry): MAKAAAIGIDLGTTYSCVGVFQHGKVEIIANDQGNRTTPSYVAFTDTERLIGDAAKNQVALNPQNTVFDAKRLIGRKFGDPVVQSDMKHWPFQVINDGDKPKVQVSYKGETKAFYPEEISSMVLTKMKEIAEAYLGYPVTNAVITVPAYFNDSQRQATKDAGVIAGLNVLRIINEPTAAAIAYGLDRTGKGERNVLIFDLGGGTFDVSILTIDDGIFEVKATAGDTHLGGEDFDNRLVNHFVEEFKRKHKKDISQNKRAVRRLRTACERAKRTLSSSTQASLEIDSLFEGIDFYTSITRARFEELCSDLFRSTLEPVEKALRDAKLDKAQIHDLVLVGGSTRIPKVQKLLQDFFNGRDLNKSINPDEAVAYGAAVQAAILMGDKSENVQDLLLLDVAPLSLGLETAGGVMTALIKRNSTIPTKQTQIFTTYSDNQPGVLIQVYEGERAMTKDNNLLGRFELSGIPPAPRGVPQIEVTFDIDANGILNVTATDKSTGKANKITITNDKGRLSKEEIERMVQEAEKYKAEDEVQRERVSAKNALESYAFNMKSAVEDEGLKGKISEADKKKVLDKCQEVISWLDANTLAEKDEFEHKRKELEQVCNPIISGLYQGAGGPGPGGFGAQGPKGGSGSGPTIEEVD

In assay [1], `CSc1nccc(N2CCC(N(C)Cc3c(F)cccc3Cl)CC2)n1` [Example 37, N-methyl-N-(2-fluoro-6-chlorobenzyl)-N-[1-(2-methylthiopyrimidin-4-yl)piperidin-4-yl]amine] returned an IC50 of 1040 nM. In addition, the inhibition at 5 µM was 75.5% in assay [1]; 55.9% in assay [2]; 84.2% in assay [3]; 78.9% in assay [4]; 78.3% in assay [5]. Moreover, the Survival rate in assay [6] (0.016 μM) is on record as 97.6%; in assay [6] (0.063 μM) it was 97.2%; in assay [6] (0.25 μM) it was 90.2%; in assay [6] (1 μM), 59.7%; in assay [6] (4 μM), 21%; in assay [7] (0.016 μM), 98.9%. Besides, the Survival rate in assay [7] (0.063 μM) is listed as 95.6%; in assay [7] (0.25 μM) it was 89.7%; in assay [7] (1 μM), 66.8%; in assay [7] (4 μM) it was 37.1%.
`CSc1nccc(N2CCC(N(C)Cc3c(Cl)cccc3Cl)CC2)n1` [Example 49, N-methyl-N-(2,6-dichlorobenzyl)-N-[1-(2-methylthiopyrimidin-4-yl)piperidin-4-yl]amine] gave a concentration for half-maximal inhibition (IC50) in assay [1] of 780 nM. The inhibition at 5 µM worked out at 61.5% in assay [1]; 30.1% in assay [2]; 68.9% in assay [3]; 19.7% in assay [4]; 13.5% in assay [5]. For the same molecule, the Survival rate in assay [6] (0.016 μM) was 102.8%; in assay [6] (0.063 μM), 102.4%; in assay [6] (0.25 μM) it was 95.1%; in assay [6] (1 μM) it was 44%; in assay [6] (4 μM) it was 17.3%; in assay [7] (0.016 μM), 89.5%. The Survival rate in assay [7] (0.063 μM) is 74.1%; in assay [7] (0.25 μM) it was 65.6%; in assay [7] (1 μM) it was 42.8%; in assay [7] (4 μM), 26%.
Consider `CSc1nccc(N2CCC(N(C)Cc3ccccc3Cl)CC2)n1` [Example 47, N-methyl-N-(2-chlorobenzyl)-N-[1-(2-methylthiopyrimidin-4-yl)piperidin-4-yl]amine], for which the midpoint of inhibition in assay [1], the IC50, lay at 1990 nM. Moreover, the inhibition at 5 µM in assay [1] is 60.4%; in assay [2], 27.7%; in assay [3] it was 66.2%; in assay [4], 31.7%; in assay [5], 16.6%. Also, the Survival rate in assay [6] (0.016 μM) is on record as 99.8%; in assay [6] (0.063 μM), 100.6%; in assay [6] (0.25 μM), 98.4%; in assay [6] (1 μM), 84.3%; in assay [6] (4 μM) it was 24.5%; in assay [7] (0.016 μM), 89.6%. Further, the Survival rate in assay [7] (0.063 μM) is given as 91.3%; in assay [7] (0.25 μM), 87.8%; in assay [7] (1 μM), 68.6%; in assay [7] (4 μM) it was 34.8%.
In assay [1], `CSc1nccc(N2CCC(N(C)Cc3ccc(Cl)cc3Cl)CC2)n1` [Example 40, N-methyl-N-(2,4-dichlorobenzyl)-N-[1-(2-methylthiopyrimidin-4-yl)piperidin-4-yl]amine] gave an IC50 of 1620 nM. For the same molecule, the inhibition at 5 µM was found to be 74.2% in assay [1]; 64.1% in assay [2]; 68.7% in assay [3]; 87.6% in assay [4]; 80.7% in assay [5]. Besides, the Survival rate is reported as 98.3% in assay [6] (0.016 μM); 103.1% in assay [6] (0.063 μM); 91.3% in assay [6] (0.25 μM); 73.7% in assay [6] (1 μM); 21.1% in assay [6] (4 μM); 97.9% in assay [7] (0.016 μM). Besides, the Survival rate was 92.7% in assay [7] (0.063 μM), 89.7% in assay [7] (0.25 μM), 71.5% in assay [7] (1 μM) and 36.3% in assay [7] (4 μM).
In the case of `CSc1nccc(N2CCC(N(C)Cc3ccc(C#N)cc3)CC2)n1` [Example 36, N-methyl-N-(4-cyanobenzyl)-N-[1-(2-methylthiopyrimidin-4-yl)piperidin-4-yl]amine], in assay [8], the “KD compared with positive control drug VER-155008” value was “KD values equivalent to that of the positive control drug VER-155008”. Moreover, in assay [8] (steady state model, 25° C., read-out: KD (binding constant between the compounds and Hsp70)), the Kd turned out to be 246 nM. The molecule also returned an IC50 in assay [1] of 1410 nM. The inhibition at 5 µM in assay [1] came to 75.5%; in assay [2], 46.9%; in assay [3], 82.4%; in assay [4], 83.4%; in assay [5], 86.1%. For the same molecule, the Survival rate was 96.6% in assay [6] (0.016 μM); 93.2% in assay [6] (0.063 μM); 89.1% in assay [6] (0.25 μM); 74.3% in assay [6] (1 μM); 27.7% in assay [6] (4 μM); 92.9% in assay [7] (0.016 μM). Moreover, the Survival rate in assay [7] (0.063 μM) amounted to 96.7%; in assay [7] (0.25 μM), 97.2%; in assay [7] (1 μM), 77.1%; in assay [7] (4 μM) it was 40.3%.

These data come from US10023565B2, “N,N′ substituted piperidinamine compounds, and preparation method and usage thereof” (Institute of Pharmacology and Toxicology Academy of …, priority 2013, dated 2018).
